Reference: patent US20120189547A1 (priority 2009, published 2012)

How the values were obtained:
[1] = In vivo biodistribution in naive male Sprague-Dawley rats; details: rat; for Time at which regional differentiation remained apparent / Pituitary gland / Thalamus: male, Sprague-Dawley; for Time at which regional differentiation remained apparent / Pituitary gland / Thalamus / Clearance from whole brain after peak uptake: in vivo; for Whole brain uptake, peak: at the time of peak; for Regional differentiation between GABA-rich and GABA-poor regions of the brain: in vivo biodistribution; for Cerebellum / Hippocampus / Pons/Medulla / Pre-frontal cortex / Striatum: lateral tail vein, mean (SD), n = 3; for Pre-frontal cortex: thalmus: ratio
Protocol: Adult male Sprague-Dawley rats (body weight 202±37 g; mean±SD) were injected with between 1 and 5 MBq of [^18F]-Compound 1 via a lateral tail vein. All animals were conscious, but lightly restrained during injection and subsequently housed in short-term metabolism cages. At the appropriate time point; 30 seconds, 2, 10, 30 and 60 minutes post-injection (pi) (n=3 per time point), the animals were sacrificed by cervical dislocation. The brain and peripheral tissues or fluids were sampled post-mortem. Radioactivity in the brain samples was measured using a Wallac gamma counter. Once assayed, the brain samples, along with the remaining organ or tissue samples were assayed using a twin-crystal gamma-counter system (BASIL), with automatic correction for radioactive decay.
The biodistribution protocol described in Example 6 for Compound 1 was used to assess Compound 2.

[2] = cited from earlier work
GABAA receptor = details: cited from earlier work

**Q.** With `CCOC(=O)c1ncn2c1CN(C)C(=O)c1cc(OCC[18F])ccc1-2` [[18F]-Compound 1] as the molecule, how does the “Time at which regional differentiation remained apparent” value [1] read?
**A.** Its value is 30 minutes pi.

**Q.** And the Pituitary gland ([1]; 0.5 min)?
**A.** Its Pituitary gland is 0.60 (0.1) % id/g.

**Q.** What about the Thalamus ([1]; 0.5 min) of the same molecule?
**A.** Its Thalamus is 0.30 (0.11) % id/g.

**Q.** What about the Pituitary gland ([1]; 2 min) of the same molecule?
**A.** The Pituitary gland was 0.69 (0.13) % id/g.

**Q.** What about the Thalamus ([1]; 2 min) of the same molecule?
**A.** The Thalamus was 0.47 (0.07) % id/g.

**Q.** And the Pituitary gland ([1]; 10 min)?
**A.** The Pituitary gland was 0.55 (0.10) % id/g.

**Q.** And the Thalamus ([1]; 10 min)?
**A.** Its Thalamus is 0.39 (0.05) % id/g.

**Q.** And the Pituitary gland ([1]; 30 min)?
**A.** The Pituitary gland was 0.30 (0.02) % id/g.

**Q.** And the Thalamus ([1]; 30 min)?
**A.** The Thalamus was 0.24 (0.05) % id/g.

**Q.** What about the Pituitary gland ([1]; 60 min) of the same molecule?
**A.** Its Pituitary gland is 0.26 (0.08) % id/g.

**Q.** And the Thalamus ([1]; 60 min)?
**A.** The Thalamus was 0.20 (0.07) % id/g.

**Q.** What about the “Time of peak whole brain uptake” value [1] of the same molecule?
**A.** The value was 10 minutes pi.

**Q.** What about the “Whole brain uptake, peak” value [1] of the same molecule?
**A.** The value was 0.9%.

**Q.** And the “Clearance from whole brain after peak uptake” value [1]?
**A.** Its value is “slow with a decreasing rate”.

**Q.** And the “Regional differentiation between GABA-rich and GABA-poor regions of the brain” value [1]?
**A.** The value was “good”.

**Q.** What about the Cerebellum ([1]; 0.5 min post-injection) of the same molecule?
**A.** The Cerebellum was 0.28 (0.06) % id/g.

**Q.** What about the Hippocampus ([1]; 0.5 min post-injection) of the same molecule?
**A.** Its Hippocampus is 0.26 (0.08) % id/g.

**Q.** What about the Pons/Medulla ([1]; 0.5 min post-injection) of the same molecule?
**A.** Its Pons/Medulla is 0.23 (0.04) % id/g.

**Q.** And the Pre-frontal cortex ([1]; 0.5 min post-injection)?
**A.** The Pre-frontal cortex was 0.33 (0.1) % id/g.

**Q.** And the Striatum ([1]; 0.5 min post-injection)?
**A.** Its Striatum is 0.26 (0.07) % id/g.

**Q.** And the Cerebellum ([1]; 2 min post-injection)?
**A.** Its Cerebellum is 0.43 (0.03) % id/g.

**Q.** What about the Hippocampus ([1]; 2 min post-injection) of the same molecule?
**A.** The Hippocampus was 0.43 (0.06) % id/g.

**Q.** And the Pons/Medulla ([1]; 2 min post-injection)?
**A.** Its Pons/Medulla is 0.34 (0.02) % id/g.

**Q.** What about the Pre-frontal cortex ([1]; 2 min post-injection) of the same molecule?
**A.** Its Pre-frontal cortex is 0.57 (0.02) % id/g.

**Q.** What about the Striatum ([1]; 2 min post-injection) of the same molecule?
**A.** The Striatum was 0.41 (0.04) % id/g.

**Q.** And the Cerebellum ([1]; 10 min post-injection)?
**A.** The Cerebellum was 0.36 (0.05) % id/g.

**Q.** And the Hippocampus ([1]; 10 min post-injection)?
**A.** Its Hippocampus is 0.43 (0.07) % id/g.

**Q.** What about the Pons/Medulla ([1]; 10 min post-injection) of the same molecule?
**A.** Its Pons/Medulla is 0.28 (0.05) % id/g.

**Q.** What about the Pre-frontal cortex ([1]; 10 min post-injection) of the same molecule?
**A.** The Pre-frontal cortex was 0.53 (0.09) % id/g.

**Q.** What about the Striatum ([1]; 10 min post-injection) of the same molecule?
**A.** Its Striatum is 0.36 (0.04) % id/g.

**Q.** What about the Cerebellum ([1]; 30 min post-injection) of the same molecule?
**A.** Its Cerebellum is 0.23 (0.04) % id/g.

**Q.** What about the Hippocampus ([1]; 30 min post-injection) of the same molecule?
**A.** The Hippocampus was 0.32 (0.05) % id/g.

**Q.** And the Pons/Medulla ([1]; 30 min post-injection)?
**A.** Its Pons/Medulla is 0.18 (0.04) % id/g.

**Q.** And the Pre-frontal cortex ([1]; 30 min post-injection)?
**A.** Its Pre-frontal cortex is 0.35 (0.07) % id/g.

**Q.** And the Striatum ([1]; 30 min post-injection)?
**A.** Its Striatum is 0.21 (0.04) % id/g.

**Q.** And the Cerebellum ([1]; 60 min post-injection)?
**A.** Its Cerebellum is 0.20 (0.05) % id/g.

**Q.** What about the Hippocampus ([1]; 60 min post-injection) of the same molecule?
**A.** The Hippocampus was 0.26 (0.07) % id/g.

**Q.** What about the Pons/Medulla ([1]; 60 min post-injection) of the same molecule?
**A.** The Pons/Medulla was 0.19 (0.05) % id/g.

**Q.** And the Pre-frontal cortex ([1]; 60 min post-injection)?
**A.** Its Pre-frontal cortex is 0.24 (0.06) % id/g.

**Q.** What about the Striatum ([1]; 60 min post-injection) of the same molecule?
**A.** The Striatum was 0.18 (0.04) % id/g.

**Q.** And the “Pre-frontal cortex: thalmus” value ([1]; 0.5 min post-injection)?
**A.** The value was 1.13.

**Q.** And the “Pre-frontal cortex: thalmus” value ([1]; 2 min post-injection)?
**A.** The value was 1.23.

**Q.** What about the “Pre-frontal cortex: thalmus” value ([1]; 10 min post-injection) of the same molecule?
**A.** The value was 1.35.

**Q.** What about the “Pre-frontal cortex: thalmus” value ([1]; 30 min post-injection) of the same molecule?
**A.** The value was 1.44.

**Q.** And the “Pre-frontal cortex: thalmus” value ([1]; 60 min post-injection)?
**A.** The value was 1.21.

**Q.** What does the source list for `CN1Cc2c(C(=O)OC(C)(C)C)ncn2-c2ccc(OCC[18F])cc2C1=O` [[18F]-Compound 2]?
**A.** Time at which regional differentiation remained apparent [1]: 10 minutes pi; Pituitary gland ([1]; 0.5 min): 0.82 (0.21) % id/g; Thalamus ([1]; 0.5 min): 0.67 (0.12) % id/g; Pituitary gland ([1]; 2 min): 1.07 (0.19) % id/g; Thalamus ([1]; 2 min): 0.78 (0.20) % id/g; Pituitary gland ([1]; 10 min): 0.69 (0.11) % id/g; Thalamus ([1]; 10 min): 0.69 (0.12) % id/g; Pituitary gland ([1]; 30 min): 0.64 (0.04) % id/g; Thalamus ([1]; 30 min): 0.62 (0.12) % id/g; Pituitary gland ([1]; 60 min): 0.51 (0.04) % id/g; Thalamus ([1]; 60 min): 0.49 (0.02) % id/g; Time of peak whole brain uptake [1]: 2 minutes pi; Whole brain uptake, peak [1]: 0.82%; Clearance from whole brain after peak uptake [1]: slow with a decreasing rate; Regional differentiation between GABA-rich and GABA-poor regions of the brain [1]: good; Cerebellum ([1]; 0.5 min post-injection): 0.75 (0.10) % id/g; Hippocampus ([1]; 0.5 min post-injection): 0.63 (0.08) % id/g; Pons/Medulla ([1]; 0.5 min post-injection): 0.58 (0.09) % id/g; Pre-frontal cortex ([1]; 0.5 min post-injection): 0.80 (0.05) % id/g; Striatum ([1]; 0.5 min post-injection): 0.63 (0.05) % id/g; Cerebellum ([1]; 2 min post-injection): 0.82 (0.19) % id/g; Hippocampus ([1]; 2 min post-injection): 0.89 (0.20) % id/g; Pons/Medulla ([1]; 2 min post-injection): 0.61 (0.14) % id/g; Pre-frontal cortex ([1]; 2 min post-injection): 1.07 (0.29) % id/g; Striatum ([1]; 2 min post-injection): 0.71 (0.16) % id/g; Cerebellum ([1]; 10 min post-injection): 0.74 (0.08) % id/g; Hippocampus ([1]; 10 min post-injection): 0.94 (0.06) % id/g; Pons/Medulla ([1]; 10 min post-injection): 0.56 (0.09) % id/g; Pre-frontal cortex ([1]; 10 min post-injection): 1.04 (0.15) % id/g; Striatum ([1]; 10 min post-injection): 0.61 (0.10) % id/g; Cerebellum ([1]; 30 min post-injection): 0.59 (0.06) % id/g; Hippocampus ([1]; 30 min post-injection): 0.75 (0.03) % id/g; Pons/Medulla ([1]; 30 min post-injection): 0.52 (0.05) % id/g; Pre-frontal cortex ([1]; 30 min post-injection): 0.75 (0.06) % id/g; Striatum ([1]; 30 min post-injection): 0.55 (0.096) % id/g; Cerebellum ([1]; 60 min post-injection): 0.47 (0.02) % id/g; Hippocampus ([1]; 60 min post-injection): 0.53 (0.01) % id/g; Pons/Medulla ([1]; 60 min post-injection): 0.45 (0.02) % id/g; Pre-frontal cortex ([1]; 60 min post-injection): 0.51 (0.03) % id/g; Striatum ([1]; 60 min post-injection): 0.45 (0.02) % id/g; Pre-frontal cortex: thalmus ([1]; 0.5 min post-injection): 1.22; Pre-frontal cortex: thalmus ([1]; 2 min post-injection): 1.36; Pre-frontal cortex: thalmus ([1]; 10 min post-injection): 1.51; Pre-frontal cortex: thalmus ([1]; 30 min post-injection): 1.23; Pre-frontal cortex: thalmus ([1]; 60 min post-injection): 1.05

**Q.** For `CCOC(=O)c1ncn2c1CN(CC[18F])C(=O)c1cc(F)ccc1-2` [[18F]FEFMZ, [18F]fluoroethylflumazenil], which “Clearance following administration in vivo” value ([2]; in vivo) is on record?
**A.** Its value is “too rapid”.

**Q.** What does the source list for `CN1Cc2c(C(=O)OCC[18F])ncn2-c2ccc(F)cc2C1=O` [[18F]FFMZ, [18F]fluoroflumazenil]?
**A.** Selective binding to GABAA receptors (GABAA receptor; reported in prior art): high selective binding; Brain uptake ([2]; reported in prior art): high

**Q.** Which Ki (GABAA receptor; prior art statement) does the source give for `CCOC(=O)c1ncn2c1CN(C)C(=O)c1cc([18F])ccc1-2` [[18F]FMZ, [18F]flumazenil] here?
**A.** The Ki was ~0.5 nM.
